Test results published in article PMC12848038, “O-GlcNAc and phosphorylation modifications on HtL1/FBA10 regulate wheat vernalization for flowering” (Nature Communications, 2025).

Target: T1, HtL1/FBA10 (HtL1-GST) (Triticum aestivum, UniProt A0A1D5VE13)
T1 construct: gene LOC123071650; class I aldolase, homotetramer only predicted (SWISS-MODEL); cytosolic
T1 sequence (A0A1D5VE13 1-358): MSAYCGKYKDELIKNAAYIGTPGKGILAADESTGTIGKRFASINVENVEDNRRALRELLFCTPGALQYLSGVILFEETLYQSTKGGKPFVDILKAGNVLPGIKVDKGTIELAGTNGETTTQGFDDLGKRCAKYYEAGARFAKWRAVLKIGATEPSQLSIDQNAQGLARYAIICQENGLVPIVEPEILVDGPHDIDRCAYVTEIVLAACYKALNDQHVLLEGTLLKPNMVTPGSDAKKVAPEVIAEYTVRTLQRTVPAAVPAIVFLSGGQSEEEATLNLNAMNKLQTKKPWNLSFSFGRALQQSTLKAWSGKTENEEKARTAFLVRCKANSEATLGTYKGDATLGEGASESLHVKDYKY
Assay: fructose-1,6-bisphosphate aldolase activity assay kit, microplate reader; enzyme kinetic curve
Assay type: biochemical
Conditions: GST fusion protein; no constant in text; kinetic curve only in figure

O=P(O)(O)OC[C@H]1OC(O)(COP(=O)(O)O)[C@@H](O)[C@@H]1O (stereo partly shown) [FBP, fructose 1,6-bisphosphate]
fructose-1,6-bisphosphate aldolase activity assay kit, microplate reader; enzyme: Enzyme kinetic curves and activity assays collectively demonstrated that HtL1 exhibits fructose-bisphosphate aldolase activity
